From PubChem BioAssay AID248 (DTP/NCI, 2004)
Where “and” joins values, the source holds several entries; their conditions need not be identical. Equal values may be shown once. Inconclusive results and toxic doses are left out. Cut-off read from the data, not from the text of the source: active = T/C of 150% or more; inactive = T/C below 125%.

System: L1210 leukemia ip in BDF1 mice, survival T/C
Assay: NCI In Vivo Anticancer Drug Screen. Data for tumor model L1210 Leukemia (intraperitoneal) in B6D2F1 (BDF1) mice
Conditions: endpoint: mean survival time, higher = longer survival
Procedure, shortened: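 Transplanted-tumor mice were given test agent; controls received vehicle only. Survival readings from the two groups were divided (treated over control).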

[1] = dose: 100.0 mg/kg/injection, schedule: Q04DX003 (ip), vehicle: saline
[2] = dose: 200.0 mg/kg/injection, schedule: Q04DX003 (ip), vehicle: saline
[3] = dose: 400.0 mg/kg/injection, schedule: Q04DX003 (ip), vehicle: saline
[4] = dose: 50.0 mg/kg/injection, schedule: Q01DX001 (ip), vehicle: saline
[5] = dose: 100.0 mg/kg/injection, schedule: Q01DX001 (ip), vehicle: saline
[6] = dose: 200.0 mg/kg/injection, schedule: Q01DX001 (ip), vehicle: saline
[7] = dose: 100.0 mg/kg/injection, schedule: Q04DX002 (ip), vehicle: saline with Tween-80
[8] = dose: 200.0 mg/kg/injection, schedule: Q04DX002 (ip), vehicle: saline with Tween-80
[9] = dose: 400.0 mg/kg/injection, schedule: Q04DX002 (ip), vehicle: saline with Tween-80
[10] = dose: 50.0 mg/kg/injection, schedule: Q04DX002 (ip), vehicle: saline with Tween-80
[11] = dose: 100.0 mg/kg/injection, schedule: Q01DX009 (ip), vehicle: saline
[12] = dose: 200.0 mg/kg/injection, schedule: Q01DX009 (ip), vehicle: saline
[13] = dose: 400.0 mg/kg/injection, schedule: Q01DX009 (ip), vehicle: saline
[14] = dose: 100.0 mg/kg/injection, schedule: Q04DX003 (ip), vehicle: Klucel (hydroxypropylcellulose) (HPC)

Measured: T/C

CCCCC(C#N)C1CC=CC(C(=O)O)C1 (stereo not drawn)
inactive: dose: 100.0 mg/kg/injection, schedule: Q01DX001 (ip), vehicle: carboxymethylcellulose (CMC) 101 % of control | dose: 200.0 mg/kg/injection, schedule: Q01DX001 (ip), vehicle: carboxymethylcellulose (CMC) 92 % of control | dose: 400.0 mg/kg/injection, schedule: Q01DX001 (ip), vehicle: carboxymethylcellulose (CMC) 97 % of control

CNc1nnnn1Cc1ccccc1
inactive: [1] 105 % of control | [2] 94 % of control | [3] 97 % of control

COc1cc(=O)n2cc(C)ccc2n1
inactive: [4] 98 % of control | [5] 101 % of control | [6] 95 % of control | dose: 400.0 mg/kg/injection, schedule: Q01DX001 (ip), vehicle: saline 90 % of control

Cn1c(=O)c2c(nc(OC3CCCC3)n2C)n(C)c1=O
inactive: dose: 50.0 mg/kg/injection, schedule: Q01DX001 (ip), vehicle: other 98 % of control | dose: 100.0 mg/kg/injection, schedule: Q01DX001 (ip), vehicle: other 98 % of control | dose: 200.0 mg/kg/injection, schedule: Q01DX001 (ip), vehicle: other 87 % of control

Brc1ccccn1
inactive: dose: 75.0 mg/kg/injection, schedule: Q01DX001 (ip), vehicle: saline 105 % of control

COc1cc2oc3cc(C)oc(=O)c3c2cc1OC
inactive: [7] 106 % of control | [8] 95 % of control | [9] 103 % of control

Cc1c(CCNC=O)cc(C)c2c3c(oc12)CCCC3
inactive: [4] 101 % of control | [5] 104 % of control | [6] 104 % of control

C[C@]12CC[C@@H]3c4ccc(OC5CCCCO5)cc4CC[C@H]3[C@@H]1CC[C@@H]2O (stereo partly drawn)
inactive: dose: 146.0 mg/kg/injection, schedule: Q01DX Z (ip), vehicle: steriod suspending solution 96 % of control | dose: 220.0 mg/kg/injection, schedule: Q01DX Z (ip), vehicle: steriod suspending solution 94 % of control | dose: 330.0 mg/kg/injection, schedule: Q01DX Z (ip), vehicle: steriod suspending solution 98 % of control | dose: 500.0 mg/kg/injection, schedule: Q01DX001 (sc), vehicle: steriod suspending solution 102 % of control | dose: 500.0 mg/kg/injection, schedule: Q01DX Z (ip), vehicle: steriod suspending solution 90 % of control | dose: 600.0 mg/kg/injection, schedule: Q01DX001 (sc), vehicle: steriod suspending solution 100 % of control | dose: 700.0 mg/kg/injection, schedule: Q01DX001 (sc), vehicle: steriod suspending solution 96 % of control | dose: 800.0 mg/kg/injection, schedule: Q01DX001 (sc), vehicle: steriod suspending solution 102 % of control

CCCc1ccccc1NC1=NCCO1
inactive: [10] 98 % of control | [7] 95 % of control | dose: 100.0 mg/kg/injection, schedule: Q04DX003 (ip), vehicle: saline with Tween-80 90 % of control | [8] 92 % of control | dose: 200.0 mg/kg/injection, schedule: Q04DX003 (ip), vehicle: saline with Tween-80 87 % of control | [9] 88 % of control | dose: 400.0 mg/kg/injection, schedule: Q04DX003 (ip), vehicle: saline with Tween-80 89 % of control

CC(=O)OC1CCCC2C(=O)c3c(c(O)c4ccccc4c3O)C(=O)C12 (stereo not drawn)
inactive: [11] 98 % of control | [1] 96 % of control | [12] 98 % of control | [2] 96 % of control | [13] 101 % of control | [3] 93 % of control

Nc1nc(N)c(N)c(=O)[nH]1
inactive: dose: 25.0 mg/kg/injection, schedule: Q04DX003 (ip), vehicle: Klucel (hydroxypropylcellulose) (HPC) 103 % of control | dose: 50.0 mg/kg/injection, schedule: Q04DX003 (ip), vehicle: Klucel (hydroxypropylcellulose) (HPC) 100 % of control | [11] 109 % of control | [14] 94 % of control and 100 % of control | [1] 107 % of control | [12] 101 % of control | [2] 105 % of control | [13] 101 % of control | [3] 104 % of control

O=C(Oc1ccccc1)C(O)CO (stereo not drawn)
inactive: dose: 100.0 mg/kg/injection, schedule: Q01DX009 (ip), vehicle: saline with Tween-80 92 % of control | dose: 200.0 mg/kg/injection, schedule: Q01DX009 (ip), vehicle: saline with Tween-80 96 % of control | dose: 400.0 mg/kg/injection, schedule: Q01DX009 (ip), vehicle: saline with Tween-80 93 % of control

Brc1cccc(CCOCc2ccccc2)c1
inactive: [7] 103 % of control | [8] 100 % of control | [9] 97 % of control

Cc1cc2c(c(NC(=O)NCCCl)c1C)CCCC2
inactive: dose: 100.0 mg/kg/injection, schedule: Q01DX009 (ip), vehicle: Klucel (hydroxypropylcellulose) (HPC) 92 % of control | [14] 105 % of control | dose: 200.0 mg/kg/injection, schedule: Q01DX009 (ip), vehicle: Klucel (hydroxypropylcellulose) (HPC) 100 % of control | dose: 200.0 mg/kg/injection, schedule: Q04DX003 (ip), vehicle: Klucel (hydroxypropylcellulose) (HPC) 96 % of control | dose: 400.0 mg/kg/injection, schedule: Q01DX009 (ip), vehicle: Klucel (hydroxypropylcellulose) (HPC) 91 % of control | dose: 400.0 mg/kg/injection, schedule: Q04DX003 (ip), vehicle: Klucel (hydroxypropylcellulose) (HPC) 103 % of control

[C-]#[N+]C1(C)CC1(c1ccccc1)c1ccccc1 (stereo not drawn)
inactive: dose: 50.0 mg/kg/injection, schedule: Q04DX003 (ip), vehicle: saline 103 % of control | [1] 110 % of control | [2] 95 % of control

CC(=O)[O][Sn]([CH2]c1ccccc1)([CH2]c1ccccc1)[CH2]c1ccccc1
inactive: dose: 0.5 mg/kg/injection, schedule: Q04DX003 (ip), vehicle: saline with Tween-80 97 % of control | dose: 1.0 mg/kg/injection, schedule: Q04DX003 (ip), vehicle: saline with Tween-80 96 % of control | dose: 3.0 mg/kg/injection, schedule: Q04DX003 (ip), vehicle: saline with Tween-80 99 % of control | dose: 12.0 mg/kg/injection, schedule: Q01DX009 (ip), vehicle: saline with Tween-80 97 % of control | dose: 25.0 mg/kg/injection, schedule: Q01DX009 (ip), vehicle: saline with Tween-80 100 % of control

O=C(/C=N/O)/C=N/O (tested in a mixture with another compound)
inactive: dose: 6.25 mg/kg/injection, schedule: Q01DX009 (ip), vehicle: saline 97 % of control | dose: 12.5 mg/kg/injection, schedule: Q01DX009 (ip), vehicle: saline 96 % of control | dose: 12.5 mg/kg/injection, schedule: Q04DX003 (ip), vehicle: saline 96 % of control | dose: 25.0 mg/kg/injection, schedule: Q01DX009 (ip), vehicle: saline 96 % of control | dose: 25.0 mg/kg/injection, schedule: Q04DX003 (ip), vehicle: saline 104 % of control

CC12CCC(=O)C=C1CCC1C2CCC2(C)C1CCC2[N+](C)(C)C (stereo not drawn)
inactive: dose: 75.0 mg/kg/injection, schedule: Q01DX001 (ip), vehicle: other 108 % of control

CC(=O)O/N=C(/CCC(=O)O)c1ccccc1
inactive: [10] 97 % of control | [7] 108 % of control | [8] 94 % of control

CCCCCCCCCCCCCCCC(=O)O[C@@]12C[C@@H](C)[C@@]3(O)[C@@H](C=C(CO)C[C@]4(O)C(=O)C(C)=C[C@@H]34)[C@@H]1C2(C)C
inactive: dose: 0.06 mg/kg/injection, schedule: Q01DX009 (ip), vehicle: saline 97 % of control | dose: 0.13 mg/kg/injection, schedule: Q01DX009 (ip), vehicle: saline 107 % of control | dose: 0.25 mg/kg/injection, schedule: Q01DX009 (ip), vehicle: saline 95 % of control | dose: 0.5 mg/kg/injection, schedule: Q01DX009 (ip), vehicle: saline 101 % of control
